Test results reported in ChEMBL document CHEMBL5442219.

What was measured:
Conditions in all cases: Compound concentration 10 µM
[1] = molecular target: 5-hydroxytryptamine receptor 7 (Homo sapiens) (UniProt P34969)
[2] = molecular target: Kappa-type opioid receptor (Homo sapiens) (UniProt P41145)
[3] = molecular target: Histamine H3 receptor (Homo sapiens) (UniProt Q9Y5N1)
[4] = molecular target: Sodium-dependent noradrenaline transporter (Homo sapiens) (UniProt P23975)
[5] = molecular target: D(1A) dopamine receptor (Homo sapiens) (UniProt P21728)
Sequence of D(1A) dopamine receptor (Homo sapiens) (P21728 whole entry): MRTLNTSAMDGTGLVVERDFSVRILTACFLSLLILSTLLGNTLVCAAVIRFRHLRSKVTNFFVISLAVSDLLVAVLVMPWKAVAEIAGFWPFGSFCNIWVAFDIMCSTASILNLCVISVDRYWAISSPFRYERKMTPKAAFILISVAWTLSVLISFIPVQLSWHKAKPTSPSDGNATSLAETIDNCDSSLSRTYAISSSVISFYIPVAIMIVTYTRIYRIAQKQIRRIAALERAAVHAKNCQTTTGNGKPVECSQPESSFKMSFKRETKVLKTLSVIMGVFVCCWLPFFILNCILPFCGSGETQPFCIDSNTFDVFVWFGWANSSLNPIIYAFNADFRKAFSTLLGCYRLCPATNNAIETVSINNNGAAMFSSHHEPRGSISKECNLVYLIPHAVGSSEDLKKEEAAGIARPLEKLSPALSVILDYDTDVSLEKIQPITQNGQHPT

[6] = molecular target: 5-hydroxytryptamine receptor 2A (Homo sapiens) (UniProt P28223)
Sequence of 5-hydroxytryptamine receptor 2A (Homo sapiens) (P28223 whole entry): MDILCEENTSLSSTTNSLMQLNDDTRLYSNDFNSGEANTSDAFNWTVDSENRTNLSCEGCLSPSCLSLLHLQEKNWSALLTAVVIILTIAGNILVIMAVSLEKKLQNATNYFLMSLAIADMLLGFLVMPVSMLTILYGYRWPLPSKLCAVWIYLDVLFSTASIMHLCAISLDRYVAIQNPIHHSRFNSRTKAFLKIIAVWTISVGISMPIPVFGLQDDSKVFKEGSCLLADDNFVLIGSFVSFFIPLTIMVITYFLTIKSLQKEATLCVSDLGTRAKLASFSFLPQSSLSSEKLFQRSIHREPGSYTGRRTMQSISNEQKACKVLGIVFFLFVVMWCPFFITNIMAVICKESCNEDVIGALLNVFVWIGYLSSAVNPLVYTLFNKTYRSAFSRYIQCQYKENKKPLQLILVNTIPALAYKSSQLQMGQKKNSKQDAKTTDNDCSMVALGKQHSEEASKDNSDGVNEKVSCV

[7] = molecular target: D(1B) dopamine receptor (Homo sapiens) (UniProt P21918)
[8] = molecular target: 5-hydroxytryptamine receptor 6 (Homo sapiens) (UniProt P50406)
[9] = molecular target: Histamine H1 receptor (Homo sapiens) (UniProt P35367)
Sequence of Histamine H1 receptor (Homo sapiens) (P35367 whole entry): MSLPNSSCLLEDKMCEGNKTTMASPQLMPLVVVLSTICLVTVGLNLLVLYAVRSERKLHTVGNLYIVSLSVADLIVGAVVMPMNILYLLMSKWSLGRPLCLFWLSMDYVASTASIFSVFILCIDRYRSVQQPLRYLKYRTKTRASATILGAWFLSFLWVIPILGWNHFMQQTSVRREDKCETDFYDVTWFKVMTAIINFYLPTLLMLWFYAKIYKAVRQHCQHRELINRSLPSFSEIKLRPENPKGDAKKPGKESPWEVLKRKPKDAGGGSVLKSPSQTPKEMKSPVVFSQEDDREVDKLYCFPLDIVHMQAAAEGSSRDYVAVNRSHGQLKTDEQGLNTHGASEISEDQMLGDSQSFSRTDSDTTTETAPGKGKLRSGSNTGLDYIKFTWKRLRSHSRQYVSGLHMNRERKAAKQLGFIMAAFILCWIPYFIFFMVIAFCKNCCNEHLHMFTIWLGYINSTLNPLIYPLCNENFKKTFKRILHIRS

[10] = molecular target: T1, Alpha-1D adrenergic receptor (Homo sapiens) (UniProt P25100)
T1 sequence (whole entry): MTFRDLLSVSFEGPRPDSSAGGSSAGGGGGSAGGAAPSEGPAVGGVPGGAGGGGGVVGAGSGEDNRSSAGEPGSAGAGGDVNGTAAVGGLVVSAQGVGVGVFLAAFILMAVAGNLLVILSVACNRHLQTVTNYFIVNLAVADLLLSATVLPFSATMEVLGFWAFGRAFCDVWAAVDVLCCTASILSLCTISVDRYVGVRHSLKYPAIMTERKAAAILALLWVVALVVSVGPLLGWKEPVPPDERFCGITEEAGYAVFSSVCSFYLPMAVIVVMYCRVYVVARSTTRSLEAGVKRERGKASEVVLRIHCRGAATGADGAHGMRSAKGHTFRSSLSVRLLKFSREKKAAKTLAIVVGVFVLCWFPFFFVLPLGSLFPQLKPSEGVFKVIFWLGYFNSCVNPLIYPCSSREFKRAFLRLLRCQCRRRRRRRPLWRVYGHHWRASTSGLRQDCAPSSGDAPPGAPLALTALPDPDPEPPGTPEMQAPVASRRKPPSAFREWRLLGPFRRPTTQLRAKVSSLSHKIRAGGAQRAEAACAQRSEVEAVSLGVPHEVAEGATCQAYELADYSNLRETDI

[11] = molecular target: D(2) dopamine receptor (Homo sapiens) (UniProt P14416)
[12] = molecular target: T2, Alpha-2B adrenergic receptor (Homo sapiens) (UniProt P18089)
T2 sequence (whole entry): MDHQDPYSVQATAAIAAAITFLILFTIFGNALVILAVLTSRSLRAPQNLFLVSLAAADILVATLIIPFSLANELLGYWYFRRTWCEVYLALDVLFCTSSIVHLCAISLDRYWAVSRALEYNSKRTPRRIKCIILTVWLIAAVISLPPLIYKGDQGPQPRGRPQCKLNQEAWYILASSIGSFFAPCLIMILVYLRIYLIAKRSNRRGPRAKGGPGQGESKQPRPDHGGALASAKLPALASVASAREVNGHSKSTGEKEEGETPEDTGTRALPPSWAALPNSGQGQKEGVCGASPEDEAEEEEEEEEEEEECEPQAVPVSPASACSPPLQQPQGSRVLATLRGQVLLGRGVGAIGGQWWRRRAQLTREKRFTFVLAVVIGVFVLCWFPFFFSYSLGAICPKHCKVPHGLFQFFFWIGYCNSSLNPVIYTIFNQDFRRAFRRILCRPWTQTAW

[13] = molecular target: D(3) dopamine receptor (Homo sapiens) (UniProt P35462)
Sequence of D(3) dopamine receptor (Homo sapiens) (P35462 whole entry): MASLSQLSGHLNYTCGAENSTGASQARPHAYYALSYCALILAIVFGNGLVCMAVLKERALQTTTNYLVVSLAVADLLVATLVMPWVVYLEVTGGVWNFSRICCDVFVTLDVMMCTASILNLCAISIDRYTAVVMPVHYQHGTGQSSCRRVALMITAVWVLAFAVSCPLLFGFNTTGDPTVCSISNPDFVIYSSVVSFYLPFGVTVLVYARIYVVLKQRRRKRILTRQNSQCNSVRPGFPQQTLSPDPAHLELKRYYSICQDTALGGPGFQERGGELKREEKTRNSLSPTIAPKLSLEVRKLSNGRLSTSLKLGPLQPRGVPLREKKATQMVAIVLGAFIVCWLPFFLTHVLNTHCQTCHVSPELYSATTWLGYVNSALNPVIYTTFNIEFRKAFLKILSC

[14] = molecular target: Histamine H4 receptor (Homo sapiens) (UniProt Q9H3N8)
Sequence of Histamine H4 receptor (Homo sapiens) (Q9H3N8 whole entry): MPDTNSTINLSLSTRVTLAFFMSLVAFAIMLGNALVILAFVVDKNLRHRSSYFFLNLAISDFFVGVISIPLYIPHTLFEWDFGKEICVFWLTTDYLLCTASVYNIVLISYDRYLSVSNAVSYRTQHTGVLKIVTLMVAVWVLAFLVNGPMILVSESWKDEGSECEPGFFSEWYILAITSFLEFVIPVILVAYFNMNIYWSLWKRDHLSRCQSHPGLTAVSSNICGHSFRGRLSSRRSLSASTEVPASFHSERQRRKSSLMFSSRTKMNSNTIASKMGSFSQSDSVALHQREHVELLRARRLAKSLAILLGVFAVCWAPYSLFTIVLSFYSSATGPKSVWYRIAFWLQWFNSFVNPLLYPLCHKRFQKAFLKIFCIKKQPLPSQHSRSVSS

[15] = molecular target: T3, 5-hydroxytryptamine receptor 1A (Homo sapiens) (UniProt P08908)
T3 sequence (whole entry): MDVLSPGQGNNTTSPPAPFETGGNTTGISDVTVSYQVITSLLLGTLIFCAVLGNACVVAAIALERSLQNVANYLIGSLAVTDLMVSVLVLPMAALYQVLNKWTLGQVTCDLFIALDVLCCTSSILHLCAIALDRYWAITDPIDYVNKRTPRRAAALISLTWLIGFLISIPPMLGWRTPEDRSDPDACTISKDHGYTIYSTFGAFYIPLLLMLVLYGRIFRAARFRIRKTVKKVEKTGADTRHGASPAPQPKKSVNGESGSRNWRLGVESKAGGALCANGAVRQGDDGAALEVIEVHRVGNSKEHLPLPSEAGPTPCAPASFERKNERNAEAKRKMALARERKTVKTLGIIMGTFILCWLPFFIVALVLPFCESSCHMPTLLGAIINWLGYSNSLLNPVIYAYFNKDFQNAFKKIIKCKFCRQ

[16] = molecular target: Sodium-dependent dopamine transporter (Homo sapiens) (UniProt Q01959)
Sequence of Sodium-dependent dopamine transporter (Homo sapiens) (Q01959 whole entry): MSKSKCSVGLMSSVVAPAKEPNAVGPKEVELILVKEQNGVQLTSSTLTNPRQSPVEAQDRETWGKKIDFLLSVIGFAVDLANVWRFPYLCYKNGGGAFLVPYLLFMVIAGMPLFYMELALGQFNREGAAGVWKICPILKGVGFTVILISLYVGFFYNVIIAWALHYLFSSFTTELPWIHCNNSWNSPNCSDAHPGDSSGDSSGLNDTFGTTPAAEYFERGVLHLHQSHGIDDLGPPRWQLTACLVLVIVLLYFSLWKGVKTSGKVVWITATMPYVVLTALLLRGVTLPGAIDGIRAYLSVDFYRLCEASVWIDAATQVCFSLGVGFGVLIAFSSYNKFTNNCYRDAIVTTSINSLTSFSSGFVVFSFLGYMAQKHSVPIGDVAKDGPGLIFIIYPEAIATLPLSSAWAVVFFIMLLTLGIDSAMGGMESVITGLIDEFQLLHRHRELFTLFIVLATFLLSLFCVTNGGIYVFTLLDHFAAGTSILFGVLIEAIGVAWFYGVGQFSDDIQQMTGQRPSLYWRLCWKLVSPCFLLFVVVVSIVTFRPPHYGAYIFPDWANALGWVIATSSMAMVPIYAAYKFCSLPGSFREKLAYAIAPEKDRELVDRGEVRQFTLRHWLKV

[17] = molecular target: Delta-type opioid receptor (Homo sapiens) (UniProt P41143)
Sequence of Delta-type opioid receptor (Homo sapiens) (P41143 whole entry): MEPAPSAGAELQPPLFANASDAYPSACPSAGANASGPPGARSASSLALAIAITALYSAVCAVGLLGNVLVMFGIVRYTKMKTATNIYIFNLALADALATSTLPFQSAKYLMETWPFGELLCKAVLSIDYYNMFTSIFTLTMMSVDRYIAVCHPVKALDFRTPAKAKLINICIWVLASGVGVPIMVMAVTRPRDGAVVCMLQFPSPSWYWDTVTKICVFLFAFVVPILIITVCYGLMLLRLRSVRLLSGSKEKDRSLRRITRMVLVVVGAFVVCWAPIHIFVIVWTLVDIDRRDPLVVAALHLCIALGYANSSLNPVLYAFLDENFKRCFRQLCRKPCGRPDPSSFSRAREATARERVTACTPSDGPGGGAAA

[18] = molecular target: T4, Muscarinic acetylcholine receptor M4 (Homo sapiens) (UniProt P08173)
T4 sequence (whole entry): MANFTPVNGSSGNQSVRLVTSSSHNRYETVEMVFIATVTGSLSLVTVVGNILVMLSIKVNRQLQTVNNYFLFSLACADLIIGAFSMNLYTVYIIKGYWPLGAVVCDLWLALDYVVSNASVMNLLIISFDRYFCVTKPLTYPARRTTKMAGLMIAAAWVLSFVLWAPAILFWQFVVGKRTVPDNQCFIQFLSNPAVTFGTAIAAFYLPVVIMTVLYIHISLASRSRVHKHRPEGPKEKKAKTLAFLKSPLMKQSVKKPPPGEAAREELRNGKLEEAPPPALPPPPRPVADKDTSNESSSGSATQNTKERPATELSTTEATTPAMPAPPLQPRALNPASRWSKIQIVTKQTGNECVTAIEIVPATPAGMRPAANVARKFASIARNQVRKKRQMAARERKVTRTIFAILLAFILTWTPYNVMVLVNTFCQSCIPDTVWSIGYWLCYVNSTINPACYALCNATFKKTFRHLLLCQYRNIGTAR

[19] = molecular target: Sigma non-opioid intracellular receptor 1 (Homo sapiens) (UniProt Q99720)
Sequence of Sigma non-opioid intracellular receptor 1 (Homo sapiens) (Q99720 whole entry): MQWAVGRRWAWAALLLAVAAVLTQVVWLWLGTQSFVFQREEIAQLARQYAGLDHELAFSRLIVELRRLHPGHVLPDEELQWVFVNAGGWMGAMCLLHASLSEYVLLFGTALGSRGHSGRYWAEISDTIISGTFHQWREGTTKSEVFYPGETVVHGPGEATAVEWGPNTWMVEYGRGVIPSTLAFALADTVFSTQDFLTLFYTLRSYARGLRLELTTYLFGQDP

Sequence of Histamine H3 receptor (Homo sapiens) (Q9Y5N1 whole entry): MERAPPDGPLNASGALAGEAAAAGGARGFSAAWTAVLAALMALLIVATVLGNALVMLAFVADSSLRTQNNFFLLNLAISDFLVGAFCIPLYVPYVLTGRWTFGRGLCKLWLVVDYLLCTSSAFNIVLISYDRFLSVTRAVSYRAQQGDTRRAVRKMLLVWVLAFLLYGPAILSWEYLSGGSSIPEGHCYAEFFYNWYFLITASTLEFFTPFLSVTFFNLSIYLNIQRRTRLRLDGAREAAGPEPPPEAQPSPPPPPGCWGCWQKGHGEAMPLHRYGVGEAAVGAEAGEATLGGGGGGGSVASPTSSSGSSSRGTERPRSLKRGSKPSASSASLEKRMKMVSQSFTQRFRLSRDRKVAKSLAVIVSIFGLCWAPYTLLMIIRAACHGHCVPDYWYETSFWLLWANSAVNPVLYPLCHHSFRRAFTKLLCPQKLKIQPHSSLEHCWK
Sequence of 5-hydroxytryptamine receptor 7 (Homo sapiens) (P34969 whole entry): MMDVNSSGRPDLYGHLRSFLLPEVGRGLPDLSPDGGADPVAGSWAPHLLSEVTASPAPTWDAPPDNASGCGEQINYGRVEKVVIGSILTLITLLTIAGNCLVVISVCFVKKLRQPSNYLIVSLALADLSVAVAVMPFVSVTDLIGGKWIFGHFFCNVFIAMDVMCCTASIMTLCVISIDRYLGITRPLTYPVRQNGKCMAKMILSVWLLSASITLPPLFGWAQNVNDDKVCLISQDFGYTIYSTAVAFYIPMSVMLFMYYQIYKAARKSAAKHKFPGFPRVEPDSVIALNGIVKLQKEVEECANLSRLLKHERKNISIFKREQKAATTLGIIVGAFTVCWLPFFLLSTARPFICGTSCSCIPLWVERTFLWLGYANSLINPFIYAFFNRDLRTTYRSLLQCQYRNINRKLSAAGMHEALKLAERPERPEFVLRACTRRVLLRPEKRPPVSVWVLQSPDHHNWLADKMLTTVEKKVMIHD
Sequence of Kappa-type opioid receptor (Homo sapiens) (P41145 whole entry): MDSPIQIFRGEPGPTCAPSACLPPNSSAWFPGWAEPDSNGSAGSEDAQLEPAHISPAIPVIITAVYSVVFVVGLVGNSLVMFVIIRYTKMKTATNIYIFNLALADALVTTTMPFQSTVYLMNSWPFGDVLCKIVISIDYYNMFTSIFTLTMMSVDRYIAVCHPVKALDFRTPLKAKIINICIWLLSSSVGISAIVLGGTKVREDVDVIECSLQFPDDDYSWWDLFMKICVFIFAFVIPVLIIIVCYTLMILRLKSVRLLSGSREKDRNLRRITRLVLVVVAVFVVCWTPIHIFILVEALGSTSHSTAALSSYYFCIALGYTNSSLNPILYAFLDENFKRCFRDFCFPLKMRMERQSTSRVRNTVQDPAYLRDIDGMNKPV

## OCc1cc(C(O)CNCCCCCCOCCCCc2ccccc2)ccc1O (stereo unspecified)
[1]
  inhibition: 97.4%
[2]
  inhibition: 9.07%
[3]
  inhibition: 23.3%
[4]
  inhibition: 98.7%
[5]
  inhibition: 6.76%
[6]
  inhibition: 78.2%
[7]
  inhibition: 19.6%
[8]
  inhibition: 18%
[9]
  inhibition: 27.7%
[10]
  inhibition: 65.8%
[11]
  inhibition: 10.9%
[12]
  inhibition: 74.1%
[13]
  inhibition: 59.6%
[14]
  inhibition: 6.15%
[15]
  inhibition: 27.8%
[16]
  inhibition: 86.5%
[17]
  inhibition: 5.6%

## Cc1nn(C)c(C)c1-c1cccc2c1CC[C@H](N(C)C)C2
[1]
  inhibition: 94.1%
[18]
  inhibition: 5.06%
[2]
  inhibition: 23.1%
[4]
  inhibition: -2.38%
[5]
  inhibition: 19.8%
[7]
  inhibition: 26%
[8]
  inhibition: -8.86%
[9]
  inhibition: 9.36%
[10]
  inhibition: 2.35%
[11]
  inhibition: 32.7%
[12]
  inhibition: 92.2%
[13]
  inhibition: -2.85%
[15]
  inhibition: 51.8%
[19]
  inhibition: 102%
[16]
  inhibition: 37.9%
[17]
  inhibition: -4.68%

## COc1cccc(-c2c(C)n(Cc3c(F)cccc3C(F)(F)F)c(=O)n(C[C@H](NCCCC(=O)O)c3ccccc3)c2=O)c1F
[1]
  inhibition: 34.2%
[18]
  inhibition: 4.32%
[2]
  inhibition: 52.1%
[5]
  inhibition: -9.59%
[6]
  inhibition: -2.02%
[7]
  inhibition: 0.96%
[8]
  inhibition: -1.04%
[9]
  inhibition: 9.07%
[10]
  inhibition: -7.43%
[11]
  inhibition: 30.2%
[12]
  inhibition: -2.07%
[13]
  inhibition: 21.6%
[15]
  inhibition: -2.18%
[19]
  inhibition: 2.12%
[17]
  inhibition: 7.27%

## CN1CCC(=C2c3ccccc3CC(=O)c3sccc32)CC1
[1]
  inhibition: 90.4%
[18]
  inhibition: 64.6%
[2]
  inhibition: 20.8%
[3]
  inhibition: -7.74%
[4]
  inhibition: 45.1%
[5]
  inhibition: 82.8%
[7]
  inhibition: 55.2%
[8]
  inhibition: 78.4%
[10]
  inhibition: 16.3%
[11]
  inhibition: 100%
[13]
  inhibition: 80.2%
[14]
  inhibition: 26.2%
[15]
  inhibition: 6.57%
[19]
  inhibition: -1.6%
[16]
  inhibition: 20.7%
[17]
  inhibition: 14.2%

## CS(=O)(=O)NC[C@H]1CC[C@H](Nc2nc3c(s2)CCSc2ccccc2-3)CC1
[1]
  inhibition: 39.7%
[2]
  inhibition: -0.03%
[3]
  inhibition: -7.45%
[4]
  inhibition: 7.48%
[5]
  inhibition: 14.1%
[6]
  inhibition: 23.7%
[7]
  inhibition: -6.36%
[8]
  inhibition: 35%
[9]
  inhibition: 18.7%
[10]
  inhibition: 2.44%
[11]
  inhibition: 4.83%
[12]
  inhibition: 23.8%
[13]
  inhibition: 67.2%
[14]
  inhibition: -4.86%
[15]
  inhibition: 35.6%
[19]
  inhibition: 45.3%
[16]
  inhibition: 3.98%
[17]
  inhibition: 4.54%

## CC(C)(C(=O)O)c1ccc(C(O)CCCN2CCC(C(O)(c3ccccc3)c3ccccc3)CC2)cc1 (stereo unspecified)
[1]
  inhibition: 4.24%
[18]
  inhibition: -3.2%
[3]
  inhibition: -3.95%
[5]
  inhibition: 28.9%
[7]
  inhibition: 18.3%
[8]
  inhibition: -8.41%
[10]
  inhibition: -2.43%
[11]
  inhibition: 65.8%
[13]
  inhibition: 53%
[14]
  inhibition: -8.03%
[15]
  inhibition: -5.94%
[19]
  inhibition: 35.9%
[16]
  inhibition: 21.9%

## COc1ccccc1N1CCN(CCCCNC(=O)c2ccc3ccccc3c2)CC1
[1]
  inhibition: 102%
[18]
  inhibition: 0.77%
[2]
  inhibition: 35.6%
[3]
  inhibition: 49.6%
[4]
  inhibition: 68.2%
[5]
  inhibition: 73.4%
[6]
  inhibition: -1.42%
[8]
  inhibition: 37.4%
[9]
  inhibition: 97%
[10]
  inhibition: 94%
[11]
  inhibition: 91.8%
[12]
  inhibition: 99.5%
[14]
  inhibition: 8.79%
[15]
  inhibition: 108%
[19]
  inhibition: 90.4%
[16]
  inhibition: 73.9%
[17]
  inhibition: -2.88%

## CNc1nc(NCc2ccc(NS(C)(=O)=O)cc2Cl)cc(-c2ccccn2)n1
[1]
  inhibition: 77.9%
[18]
  inhibition: 9.44%
[2]
  inhibition: 73.2%
[3]
  inhibition: -8.26%
[4]
  inhibition: 24%
[5]
  inhibition: 7.8%
[6]
  inhibition: 60.3%
[8]
  inhibition: 47%
[9]
  inhibition: 12%
[10]
  inhibition: 12.4%
[11]
  inhibition: -4.41%
[12]
  inhibition: 24.4%
[13]
  inhibition: 56.5%
[14]
  inhibition: 0.58%
[15]
  inhibition: 0.99%
[19]
  inhibition: 87.2%
[16]
  inhibition: 47.6%
[17]
  inhibition: -8.14%

## NCCc1c[nH]c2ccc(C(N)=O)cc12
[1]
  inhibition: 100%
[18]
  inhibition: -6.09%
[2]
  inhibition: 2.24%
[4]
  inhibition: 63.2%
[6]
  inhibition: -8.47%
[8]
  inhibition: 88.4%
[9]
  inhibition: -4.09%
[10]
  inhibition: 14.8%
[11]
  inhibition: 55.9%
[12]
  inhibition: 24.8%
[13]
  inhibition: 7.17%
[14]
  inhibition: -3.92%
[15]
  inhibition: 91.4%
[19]
  inhibition: 20.2%
[16]
  inhibition: 44.6%
[17]
  inhibition: -3.42%

## Cc1cc([C@@H](C)Nc2cccc(-c3cc(C)c(C(=O)N[C@@H](C)C(=O)O)c(C)c3)c2)ccc1Cl
[1]
  inhibition: 2.27%
[18]
  inhibition: 7.41%
[2]
  inhibition: 0.51%
[3]
  inhibition: 10%
[4]
  inhibition: 14.9%
[5]
  inhibition: 14%
[6]
  inhibition: 5.15%
[7]
  inhibition: 5.13%
[8]
  inhibition: -2.64%
[9]
  inhibition: 2.32%
[11]
  inhibition: 7.32%
[12]
  inhibition: 24.6%
[13]
  inhibition: 58.6%
[15]
  inhibition: 3.66%
[19]
  inhibition: 20%
[16]
  inhibition: 56.6%
[17]
  inhibition: 35.9%

## Clc1ccc(CCCOCCCN2CCCCC2)cc1
[1]
  inhibition: 63.3%
[18]
  inhibition: 76.8%
[2]
  inhibition: 40.4%
[3]
  inhibition: 79.8%
[4]
  inhibition: 64.5%
[5]
  inhibition: 12.1%
[6]
  inhibition: 28.5%
[8]
  inhibition: 39.1%
[9]
  inhibition: 68.7%
[10]
  inhibition: 0.84%
[11]
  inhibition: 6.98%
[12]
  inhibition: 1.88%
[13]
  inhibition: 47.4%
[14]
  inhibition: -7.57%
[15]
  inhibition: 16.8%
[19]
  inhibition: 99.5%
[16]
  inhibition: 25.6%
[17]
  inhibition: -1.15%
